One may read the IC50 as the concentration that gives 50% inhibition. A higher IC50 goes with a need for much substance. In general, inhibition refers to the share of the control response that was lost under treatment. Low values mean little suppression, high ones strong suppression. For orientation: melting point means the temperature of the solid-liquid transition.

Experimental findings from article PMC9247258, “Synthesis and Biological Activity Evaluation of 2-Cyanopyrrole Derivatives as Potential Tyrosinase Inhibitors” (Frontiers in Chemistry, 2022) are described below.

Structures are written as SMILES.

Data set [1] addresses T1, mushroom tyrosinase (Agaricus bisporus, UniProt C7FF04). Kind of data set: Mushroom tyrosinase inhibitory assay (L-DOPA as substrate). The class given is biochemical. Also on record: purchased Sigma (St. Louis, MO, United States). Particulars: for IC50: mushroom tyrosinase, L-DOPA substrate, absorbance 475 nm. The method, then: The mushroom tyrosinase activity assays of synthetic compounds were carried out according to the previously reported modification ([Qin et al., 2015]). L-DOPA was used as the substrate. Briefly, 800 μl of phosphate buffer (50 mM, pH 6.8), 50 μl of mushroom tyrosinase (666.67 U/ml, dissolved in PBS), and 50 μl of inhibitor (dissolved in DMSO) were placed in the plastic centrifuge tube. Then, 100 μl of L-DOPA (5 mM, dissolved in PBS) was added. Subsequently, its change in absorbance at 475 nm was measured in a time-dependent manner using a Beckman UV-650 spectrophotometer. The percentage inhibition was calculated by using [(OD0 - OD1)/OD0] × 100%, where OD0 was the absorbance without inhibitor, and OD1 was the absorbance with the inhibitor. The IC50 value of the potential compound was calculated from dose-response curves of percentage inhibition. Kojic acid was used as a standard control for comparison. All experiments were performed in duplicate.
Target sequence in this assay (C7FF04 1-392 limits assumed): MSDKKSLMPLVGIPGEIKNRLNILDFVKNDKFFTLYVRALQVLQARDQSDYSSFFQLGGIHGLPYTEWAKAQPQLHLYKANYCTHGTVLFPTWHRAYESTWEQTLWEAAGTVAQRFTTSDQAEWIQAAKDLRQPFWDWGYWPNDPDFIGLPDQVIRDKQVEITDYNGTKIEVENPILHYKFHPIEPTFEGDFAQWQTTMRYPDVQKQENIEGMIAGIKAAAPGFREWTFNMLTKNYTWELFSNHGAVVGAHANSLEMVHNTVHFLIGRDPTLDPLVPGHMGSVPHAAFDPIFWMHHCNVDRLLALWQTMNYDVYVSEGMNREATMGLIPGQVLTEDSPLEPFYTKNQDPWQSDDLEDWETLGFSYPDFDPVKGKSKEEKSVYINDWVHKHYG

In data set [2] the target is T1, mushroom tyrosinase. The experiment in a line: Inhibition mechanism and kinetic analysis (v vs [E] plots, Lineweaver-Burk plot). It is filed as biochemical. As for the experimental part:
Experiments were performed to analyze the inhibitory mechanism by the following method. For the text, the mushroom tyrosinase at a final concentration of 16.67–100.00 U/ml and L-DOPA at a final concentration of 0.5 mM were chosen. Then, the mushroom tyrosinase activity was measured in the presence of the inhibitor.
The inhibition type of the inhibitor on mushroom tyrosinase was evaluated by the Lineweaver–Burk plot, and the inhibition constants were obtained from the second plots of the apparent 1/Vmax and Km/Vmax against the inhibitor concentration. In this assay, mushroom tyrosinase at a final concentration of 33.33 U/ml and L-DOPA at a final concentration of 0.25–2 mM were used. The equation for the Lineweaver–Burk plot can be written as follows: 1/v−Km/Vm(1+[I]/KI)+1/Vm(1+[I]/KIS) where v is the reaction velocity, Km is the Michaelis constant, Vm is the maximal velocity, [I] is the concentration of the inhibitor, [S] is the concentration of the substrate, KI is the constant for the inhibitor binding with the free enzyme, and KIS is the constant for the inhibitor binding with the enzyme-substrate complex. KI and KIS were obtained from the slope or the vertical intercept vs. the inhibitor concentration, respectively.
Target sequence in this assay (C7FF04 2-392): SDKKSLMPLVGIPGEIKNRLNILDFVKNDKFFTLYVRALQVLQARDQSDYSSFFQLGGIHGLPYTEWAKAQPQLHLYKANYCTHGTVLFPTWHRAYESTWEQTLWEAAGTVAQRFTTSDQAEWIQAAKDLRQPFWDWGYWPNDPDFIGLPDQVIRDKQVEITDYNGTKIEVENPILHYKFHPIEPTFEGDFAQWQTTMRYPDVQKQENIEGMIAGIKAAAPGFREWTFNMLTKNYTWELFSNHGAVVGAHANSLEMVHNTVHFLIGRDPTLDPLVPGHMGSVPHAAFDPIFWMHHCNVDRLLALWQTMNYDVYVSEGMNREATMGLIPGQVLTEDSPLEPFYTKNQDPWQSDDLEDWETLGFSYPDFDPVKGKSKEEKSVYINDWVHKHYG

Data set [3] has as its system B16 melanoma cells. Kind of data set: MTT assay, cell cytotoxicity. It is filed as cell-based, mouse. As to conditions: 24 h treatment, under a concentration of 100 μM. The method, then: B16 mouse melanoma cells were cultured in Dulbecco’s modified Eagle’s medium (DMEM) containing 10% fetal bovine serum and 1% penicillin/streptomycin at 37°C in a 5% CO2 incubator. B16 cells (100 µl) were plated in a 96-well plate (5 × 10^3 cells/well) for 24 h and then treated with a 100 µl complete medium containing A12 or kojic acid for 24 h. MTT solution (0.5 mg/ml, final concentration) was added to each well, and plates were incubated at 37°C for another 3 h. The absorbance was measured at 490 nm using a multi-detection microplate reader.
On the technique in general: Formazan colour is commonly taken as a measure of viable cells.

Data set [4] relates to tyrosinase in B16 melanoma cells. Kind of data set: Cellular tyrosinase activity. Particulars: Mus musculus, 48 h incubation. It is filed as cell-based. As for the experimental part: B16 mouse melanoma cells were cultured in Dulbecco’s modified Eagle’s medium (DMEM) containing 10% fetal bovine serum and 1% penicillin/streptomycin at 37°C in a 5% CO2 incubator. The inhibitory activity of A12 on tyrosinase in B16 cells was evaluated. B16 cells (5 × 10^4 cells/well) were plated in 96-well plates and incubated for 24 h. A measure of 100 µl of complete medium including A12 or kojic acid was added for further incubation of 48 h. Then, cells were added to 50 µl Triton X-100 (1%) and allowed for freezing for 1 h at −80°C. After thawing at room temperature, 10 μl L-DOPA solutions (0.1%, w/v) were added and co-incubated for 1 h at 37°C. The absorbance at 405 nm was measured.

In the case of `Cn1ccc(-c2ccccc2)c1C#N` [Compound A1], the IC50 in data set [1] is 7.42 µM.

The molecule `Cn1ccc(-c2ccccc2F)c1C#N` [Compound A2] registered an IC50 in data set [1] of 8.72 µM. On to `Cn1ccc(-c2cccc(F)c2)c1C#N` [Compound A3], for which inhibition in data set [1] was half-maximal at 21.4 µM (IC50). Same read-out and setting: under `Cn1ccc(-c2ccccc2Br)c1C#N` [Compound A4] stands 8.47 µM; under `Cn1ccc(-c2cccc(Br)c2)c1C#N` [Compound A5], 16.5 µM. On the same count and under the same terms, under `Cn1ccc(-c2ccc(Br)cc2)c1C#N` [Compound A6] stands 8.17 µM; under `COc1ccccc1-c1ccn(C)c1C#N` [Compound A7], 23.6 µM; under `COc1ccc(-c2ccn(C)c2C#N)cc1` [Compound A8], 89.2 µM.

Regarding `Cn1ccc(-c2ccc(C(F)(F)F)cc2)c1C#N` [Compound A9], in data set [1], the IC50 was 12.4 µM. Still for that read-out and setting: under `Cn1ccc(-c2cccc(Cl)c2Cl)c1C#N` [Compound A10] stands 4.83 µM. The same measure, in the same setting: then `COc1ccc(Br)cc1-c1ccn(C)c1C#N` [Compound A11], with 2.11 µM. Consider `C=Cc1ccccc1-c1ccn(C)c1C#N` [Compound A12], for which the inhibition type result in data set [2] (Lineweaver-Burk double reciprocal plots, L-DOPA 0.25-2 mM, tyrosinase 33.33 U/ml) is listed as “mixed-type”. Further, the “reversibility of tyrosinase inhibition” value in data set [2] (plots of initial velocity vs tyrosinase concentration, L-DOPA 0.5 mM) is listed as “reversible”. For the same molecule, in data set [2] (second plot of apparent 1/Vmax vs inhibitor concentration), the “KIS, equilibrium constant for inhibitor binding with enzyme-substrate complex” value turned out to be 1.00 µM. Moreover, the “cell cytotoxicity on B16 melanoma cells” value in data set [3] is “no cytotoxicity”. Also, in data set [4], testing at 100 µM gave an inhibition of 33.5%. The same molecule gave a half-inhibitory concentration (IC50) in data set [1] of 0.97 µM. Moreover, in data set [1] (ratio of tyrosinase IC50 values, kojic acid vs compound), the “times stronger than the reference inhibitor kojic acid” value is ~30 times. Turning to `CCn1c(C)cc(-c2ccccc2)c1C#N` [Compound A13], the IC50 in data set [1] was 4.46 µM.

In data set [1], `N#Cc1c(-c2ccc(Cl)cc2)ccn1Cc1ccccc1` [Compound A14] showed a half-maximal inhibitory concentration (IC50) of 80.5 µM. `Cn1c(-c2ccccc2)cc(-c2ccc(Cl)cc2)c1C#N` [Compound A15]: the half-inhibitory concentration (IC50) in data set [1] was found to be 87.3 µM.

In data set [1], `N#Cc1c(-c2ccc(Cl)cc2)cc2n1CCCC2` [Compound A16] yielded a half-maximal inhibitory concentration (IC50) of 5.06 µM.

Molecule `N#Cc1c(-c2ccc(Cl)cc2)cc2n1Cc1ccccc1C2` [Compound A17] came in with a concentration for half-maximal inhibition (IC50) in data set [1] of 5.57 µM. Turning to `Cn1ccc(-c2cccc(Br)c2)c1C(N)=O` [Compound B1, 3-(3-Bromophenyl)-1-methyl-1H-pyrrole-2-carboxamide], in data set [1], the IC50 is > 200 µM. `Cn1ccc(-c2ccc(Br)cc2)c1C(N)=O` [Compound B2, 3-(4-Bromophenyl)-1-methyl-1H-pyrrole-2-carboxamide] displayed a melting point of 172 to 174 °C. Further, the concentration for half-maximal inhibition (IC50) in data set [1] is > 200 µM.

For the molecule `Cn1ccc(-c2ccc(Br)cc2)c1CNC(=O)OC(C)(C)C` [Compound B3, tert-Butyl ((3-(4-bromophenyl)-1-methyl-1H-pyrrol-2-yl)methyl)carbamate], the melting point fell in the range of 109 to 113 °C. Moreover, the IC50 in data set [1] is > 200 µM. On the same counts, the results for `Cn1ccc(-c2cccc(F)c2)c1CNC(=O)OC(C)(C)C` [Compound B4, tert-Butyl ((3-(3-fluorophenyl)-1-methyl-1H-pyrrol-2-yl)methyl)carbamate] are 103 to 104 °C and > 200 µM. On the same counts, the results for `Cn1ccc(-c2cccc(Br)c2)c1CNC(=O)OC(C)(C)C` [Compound B5, tert-Butyl ((3-(3-bromophenyl)-1-methyl-1H-pyrrol-2-yl)methyl)carbamate] are 124 to 127 °C and > 200 µM.

`Cn1ccc(-c2ccccc2)c1CNC(=O)OC(C)(C)C` [Compound B6, tert-Butyl ((1-methyl-3-phenyl-1H-pyrrol-2-yl)methyl)carbamate] returned a melting point of 87 to 90 °C. Moreover, the IC50 in data set [1] is > 200 µM. On the same counts, the results for `Cn1ccc(-c2ccc(C(F)(F)F)cc2)c1CNC(=O)OC(C)(C)C` [Compound B7, tert-Butyl ((1-methyl-3-(4-(trifluoromethyl)phenyl)-1H-pyrrol-2-yl)methyl)carbamate] are 120 to 122 °C and > 200 µM. On the same counts, the results for `Cn1ccc(-c2ccccc2F)c1CNC(=O)OC(C)(C)C` [Compound B8, tert-Butyl ((3-(2-fluorophenyl)-1-methyl-1H-pyrrol-2-yl)methyl)carbamate] are 81 to 84 °C and > 200 µM. Take `O=c1cc(CO)occ1O` [Kojic acid, reference compound]: the “cell cytotoxicity on B16 melanoma cells” value in data set [3] is listed as “no cytotoxicity”. Also, in data set [4], the inhibition at 100 µM was 39.8%.
